Laboratory results taken from patent US20130071368A1, “PREPARATION, USE OF PREPARATION FOR TREATMENT, AND METHOD OF TREATMENT OF INTESTINAL INFECTION” (FAYREFIELD FOODS LIMITED, priority 2007, published 2013).

Test system: C. difficile infection
Experiment: Anecdotal treatment of patients with C. difficile infection
Format: in vivo, human
Conditions: patient, second presentation
Procedure: A patient was suffering severe symptoms of C. difficile infection, in spite of narrow-spectrum antibiotic treatment, for a period of approximately three months. The treatment protocol was then modified to include, additionally, the oral administration of cranberry puree and GOS at least once daily.
A further patient, presenting for the second time with symptoms of c. difficile was treated initially with metronidazole and then, subsequently, with vancomycin. […] At the point of administration of a mixture of galacto-oligosaccharide and cranberry puree the patient was recording 16 episodes of open bowel in a 24 hour period, was suffering from severe dehydration and was causing significant concern that death might imminently result.

| Compound | effect of antibiotic treatment on symptoms of c. difficile |
| --- | --- |
| Cc1ncc([N+](=O)[O-])n1CCO [metronidazole] | Neither treatment was having any effect |
| CN[C@H](CC(C)C)C(=O)N[C@H]1C(=O)N[C@@H](CC(N)=O)C(=O)N[C@H]2C(=O)N[C@H]3C(=O)N[C@H](C(=O)N[C@H](C(=O)O)c4cc(O)cc(O)c4-c4cc3ccc4O)[C@H](O)c3ccc(c(Cl)c3)Oc3cc2cc(c3O[C@@H]2O[C@H](CO)[C@@H](O)[C@H](O)[C@H]2O[C@H]2C[C@](C)(N)[C@H](O)[C@H](C)O2)Oc2ccc(cc2Cl)[C@H]1O [vancomycin] | Neither treatment was having any effect |
